Laboratory results taken from PubChem BioAssay AID540274 (Sanford-Burnham Center for Chemical Genomics, 2011).
Activity calls are given as the source filed them.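 How the source made its calls: active means mean IC50 below 100 µM; inactive means the rest.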

Biological target: intestinal alkaline phosphatase Alpi (Mus musculus)
Assay: mouse IAP inhibition by analogs, SAR follow-up, selectivity assay for human IAP inhibitor project, biochemical, ortholog specificity, luminescence, set 2 (AID 540274)
Conditions: purified mouse IAP, CDP-Star luminescence, 30 min

First: COc1ccc(NC(=O)CNS(=O)(=O)c2ccc3[nH]c(=O)oc3c2)cc1OC
Second: O=C(CNS(=O)(=O)c1ccc2[nH]c(=O)oc2c1)Nc1ccc2c(c1)OCO2
The IC50 of the first is 4.6-fold higher: 23 µM for the first, 5.05 µM for the second.

Going from `O=C(CNS(=O)(=O)c1ccc2[nH]c(=O)oc2c1)NCc1ccc2c(c1)OCO2` to `Cc1ccc(C)c(NC(=O)CCNS(=O)(=O)c2ccc3[nH]c(=O)oc3c2)c1`, the IC50 falls from 3.31 µM to 0.219 µM (15-fold).

For `N#Cc1ccc(CNC(=O)CCNS(=O)(=O)c2ccc3[nH]c(=O)oc3c2)cc1`, the IC50 was > 100 µM (inactive).
